Laboratory results as given in the NIST ThermoML archive (doi:10.1016/j.jct.2017.07.016).

Tests used:
[1] = xn = mol fraction of the nth substance listed; details: 96.7 kPa, Liquid, x2 = 0; for viscosity: Capillary tube (Ostwald / Ubbelohde) method; for mass density: Vibrating tube method
[2] = 96.7 kPa, Liquid; for viscosity: Capillary tube (Ostwald / Ubbelohde) method; for mass density: Vibrating tube method

CC(=O)N(C)C [N,N-dimethylethanamide] + CCCCCCn1cc[n+](C)c1.[Cl-]
[1]
Details	mass density [kg/m3]	viscosity [mPa·s]
303.15 K	931.85	0.891
308.15 K	927.26	0.834
313.15 K	922.66	0.785
318.15 K	918.06	0.739
323.15 K	913.44	0.698
328.15 K	908.81	0.661
333.15 K	904.16	0.627
338.15 K	899.53	0.598
343.15 K	894.87	0.567
348.15 K	890.19	0.541
353.15 K	885.51	0.516

CC(=O)N(C)C [N,N-dimethylethanamide]
[2]
Details	mass density [kg/m3]	viscosity [mPa·s]
303.15 K	931.85	0.891
308.15 K	927.26	0.834
313.15 K	922.66	0.785
318.15 K	918.06	0.739
323.15 K	913.44	0.698
328.15 K	908.81	0.661
333.15 K	904.16	0.627
338.15 K	899.53	0.598
343.15 K	894.87	0.567
348.15 K	890.19	0.541
353.15 K	885.51	0.516

C[S+](C)[O-] [dimethyl sulfoxide]
[2]
Details	mass density [kg/m3]	viscosity [mPa·s]
303.15 K	1090.29	1.8
308.15 K	1085.28	1.665
313.15 K	1080.3	1.529
318.15 K	1075.31	1.407
323.15 K	1070.32	1.304
328.15 K	1065.33	1.211
333.15 K	1060.34	1.127
338.15 K	1055.34	1.056
343.15 K	1050.35	0.989
348.15 K	1045.34	0.931
353.15 K	1040.33	0.878

C[S+](C)[O-] [dimethyl sulfoxide] + CCCCCCn1cc[n+](C)c1.[Cl-]
[1]
Details	mass density [kg/m3]	viscosity [mPa·s]
303.15 K	1090.29	1.8
308.15 K	1085.28	1.665
313.15 K	1080.3	1.529
318.15 K	1075.31	1.407
323.15 K	1070.32	1.304
328.15 K	1065.33	1.211
333.15 K	1060.34	1.127
338.15 K	1055.34	1.056
343.15 K	1050.35	0.989
348.15 K	1045.34	0.931
353.15 K	1040.33	0.878

CN(C)C=O [dimethylformamide] + CCCCCCn1cc[n+](C)c1.[Cl-]
[1]
Details	mass density [kg/m3]	viscosity [mPa·s]
303.15 K	939.18	0.766
308.15 K	934.41	0.723
313.15 K	929.64	0.685
318.15 K	924.86	0.651
323.15 K	920.07	0.619
328.15 K	915.26	0.589
333.15 K	910.44	0.562
338.15 K	905.6	0.537
343.15 K	900.74	0.514
348.15 K	895.87	0.493
353.15 K	890.98	0.473

c1ccncc1 [pyridine] + CCCCCCn1cc[n+](C)c1.[Cl-]
[1]
Details	mass density [kg/m3]	viscosity [mPa·s]
303.15 K	973.09	0.843
308.15 K	968.06	0.789
313.15 K	963.02	0.741
318.15 K	957.97	0.697
323.15 K	952.9	0.658
328.15 K	947.82	0.622
333.15 K	942.72	0.59
338.15 K	937.6	0.56
343.15 K	932.46	0.533
348.15 K	927.3	0.507
353.15 K	922.12	0.485

c1ccncc1 [pyridine]
[2]
Details	mass density [kg/m3]	viscosity [mPa·s]
303.15 K	973.09	0.843
308.15 K	968.06	0.789
313.15 K	963.02	0.741
318.15 K	957.97	0.697
323.15 K	952.9	0.658
328.15 K	947.82	0.622
333.15 K	942.72	0.59
338.15 K	937.6	0.56
343.15 K	932.46	0.533
348.15 K	927.3	0.507
353.15 K	922.12	0.485

CN(C)C=O [dimethylformamide]
[2]
Details	mass density [kg/m3]	viscosity [mPa·s]
303.15 K	939.18	0.766
308.15 K	934.41	0.723
313.15 K	929.64	0.685
318.15 K	924.86	0.651
323.15 K	920.07	0.619
328.15 K	915.26	0.589
333.15 K	910.44	0.562
338.15 K	905.6	0.537
343.15 K	900.74	0.514
348.15 K	895.87	0.493
353.15 K	890.98	0.473

CCCCCCn1cc[n+](C)c1.[Cl-] [1-hexyl-3-methylimidazolium chloride]
[2]
Details	mass density [kg/m3]	viscosity [mPa·s]
303.15 K	1036.07	5718.5
308.15 K	1033.22	3430.8
313.15 K	1030.38	2146.1
318.15 K	1027.56	1390.4
323.15 K	1024.75	928.1
328.15 K	1021.92	638.79
333.15 K	1019.13	453.59
338.15 K	1016.38	327.52
343.15 K	1013.65	243.04
348.15 K	1010.91	183.45
353.15 K	1008.18	140.06
